Three compounds from patent US10137174B2, “Methods and materials for treating cancers that express reduced levels of wild-type p53 polypeptides” (Mayo Foundation for Medical Education and Research, priority 2009, dated 2018) can be followed below.

Assay [1] deals with USP10 phosphorylation (PIKKs/ATM). Kind of assay: USP10 phosphorylation at SQ/TQ motifs after DNA damage (FLAG-USP10 IP, pSQ/TQ blot) in HCT116 cells. The settings on record: Ku55933, 2 hours pretreatment; 10 Gy radiation; HCT116 cells with FLAG-USP10. The class given is cell-based.
Description: Forty-eight hours later, the cells were left untreated or treated with 10 Gy radiation, 40 J/m^2 UV, or 20 mM etoposide. After an additional 1 hour, the cells were harvested. Cell lysates were subjected to immunoprecipitation with anti-FLAG antibody and immunobloted with phospho-SQ/TQ (pSQ/TQ) antibody. […] After 2 hours of incubation, cells were left untreated or treated with 10 Gy radiation. The phosphorylation of USP10 was examined as in (FIG. 6C). […] Cells were left untreated or treated with 10 Gy radiation. USP10 phosphorylation was examined by pSQ/TQ antibody.
Cells were lysed with NETN buffer (20 mM Tris-HCl, pH 8.0, 100 mM NaCl, 1 mM EDTA, 0.5% Nonidet P-40) containing 50 mM β-glycerophosphate, 10 mM NaF, and 1 mg/mL each of pepstatin A, and aprotinin. Whole cell lysates obtained by centrifugation were incubated with 2 μg of antibody and protein A or protein G Sepharose beads (Amersham Biosciences) for 2 hours at 4° C. The immunocomplexes were then washed with NETN buffer three times and separated by SDS-PAGE. Immunoblotting was performed following standard procedures.
Assay [2] addresses T1, USP10 polypeptide (Homo sapiens, UniProt Q14694).
T1 construct: His; made in house; host or cells: E. coli BL21 (pET-28a vector)
Kind of assay: Ub-AMC deubiquitination assay with USP10 polypeptide. The class given is biochemical. The settings on record: USP10 4 μg/mL, Ub-AMC 300 nmol/L, vs DMSO, p<0.01. How it is done: FIG. 17A is a concentration curve graph plotting the level of deubiquitination of Ub-AMC observed following incubation with the indicated amounts of USP10 polypeptide (μg). FIG. 17B is a graph plotting the level of deubiquitination of Ub-AMC in the presence (right) or absence (left) of 4 μg/mL of USP10 polypeptides and the indicated compound.
Briefly, the amount of Ub-AMC deubiquitination in vitro increased as the concentration of USP10 polypeptides increased (FIG. 17A).
N-ethylmaleimide (1 mM), Z-phe-ala fluoromethyl ketone ([…] dihydrochloride (10 μg/mL), E-64 (10 μM), chymostatia ([…] fluoride (40 μM), E-64d (0.5 μM), and cystatin (36 μg/mL) were tested for the ability to inhibit USP10 polypeptide activity using USP10 polypeptide (4 μg/mL) and Ub-AMC (300 nmol/L). Briefly, both enzyme (USP10 polypeptide) and substrate (Ub-AMC) were freshly prepared in USP10 reaction buffer (50 mmol/L Tris-HCl (pH 7.6), 0.5 mmol/L EDTA, 5 mmol/L DTT, 0.01% Triton X-100, and 0.05 mg/mL serum albumin) for each run. Each well (except substrate control wells) in a typical assay contained 4 μg/mL of USP10, the compound, or 2% DMSO. The wells were incubated for 30 minutes to attain equilibrium, and the enzymatic reaction was then initiated by adding the substrate (300 nmol/L of Ub-AMC). […]

T1 sequence (Q14694 whole entry): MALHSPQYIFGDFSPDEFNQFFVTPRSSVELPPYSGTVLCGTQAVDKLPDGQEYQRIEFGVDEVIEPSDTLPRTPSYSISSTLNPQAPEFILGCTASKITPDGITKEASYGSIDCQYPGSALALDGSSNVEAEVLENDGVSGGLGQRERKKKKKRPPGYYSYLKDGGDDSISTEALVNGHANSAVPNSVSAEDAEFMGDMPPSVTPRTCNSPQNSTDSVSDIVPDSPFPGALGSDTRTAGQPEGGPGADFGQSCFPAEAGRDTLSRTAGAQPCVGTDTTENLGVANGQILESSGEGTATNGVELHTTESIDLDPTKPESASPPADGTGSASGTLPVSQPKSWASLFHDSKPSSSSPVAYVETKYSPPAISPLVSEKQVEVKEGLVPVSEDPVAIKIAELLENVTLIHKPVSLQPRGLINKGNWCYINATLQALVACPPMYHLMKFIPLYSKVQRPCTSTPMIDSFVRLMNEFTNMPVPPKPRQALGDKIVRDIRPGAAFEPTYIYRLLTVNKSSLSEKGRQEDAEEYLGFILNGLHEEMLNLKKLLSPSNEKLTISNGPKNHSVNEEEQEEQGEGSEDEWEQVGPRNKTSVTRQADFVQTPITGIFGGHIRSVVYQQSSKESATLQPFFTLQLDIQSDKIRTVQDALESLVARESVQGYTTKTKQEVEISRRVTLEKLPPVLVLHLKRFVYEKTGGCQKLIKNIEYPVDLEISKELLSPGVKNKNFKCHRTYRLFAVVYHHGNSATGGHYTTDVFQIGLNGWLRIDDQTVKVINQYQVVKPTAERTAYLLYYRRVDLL

Take `O=c1cc(-c2cccc3c2Sc2ccccc2S3)oc(N2CCOCC2)c1` [KU55933]: in assay [1], the “USP10 phosphorylation after IR” value is given as “inhibited”. Turning to `CCN1C(=O)C=CC1=O` [N-ethylmaleimide], the “deubiquitinating activity of USP10 polypeptides” value in assay [2] (compound 1 mM) is “significantly inhibited”. For `C[C@H](NC(=O)[C@H](Cc1ccccc1)NC(=O)OCc1ccccc1)C(=O)CF` [Z-phe-ala fluoromethyl ketone], the “deubiquitinating activity of USP10 polypeptides” value in assay [2] (compound 80 μM) is “significantly inhibited”.
